{"source": "the supplement of paper PMC10307832", "assay_in_all_cases": "relative viability (nuclei count vs DMSO), 5 days (fraction); higher = more cells survive", "key": {"NCI-H441": {"system": "NCI-H441", "summary_of_the_method": "(§1)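 Cells from lung cancer lines were seeded into 1536-well plates and, one day later, dosed by pin tool. Treatments were either a single drug or a fixed dose of an anchor drug with five library-drug doses (not always all listed) in √10 steps. After 5 days, nuclei were stained in a one-step fixation (final 0.05% Triton X-100, 1% formaldehyde, 1 ug/ml Hoechst) and counted on 4× images, and relative viability is the treated-to-vehicle nuclei ratio, as the median of duplicate plates.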"}, "NCI-H647": {"system": "NCI-H647", "summary_of_the_method": "as §1"}, "NCI-H460": {"system": "NCI-H460", "summary_of_the_method": "as §1"}, "NCI-H596": {"system": "NCI-H596", "summary_of_the_method": "as §1"}, "PC-14": {"system": "PC-14", "summary_of_the_method": "as §1"}, "NCI-H1437": {"system": "NCI-H1437", "summary_of_the_method": "as §1"}, "ABC-1": {"system": "ABC-1", "summary_of_the_method": "as §1"}, "NCI-H1755": {"system": "NCI-H1755", "summary_of_the_method": "as §1"}, "NCI-H23": {"system": "NCI-H23", "summary_of_the_method": "as §1"}, "HCC-366": {"system": "HCC-366", "summary_of_the_method": "as §1"}, "NCI-H3122": {"system": "NCI-H3122", "summary_of_the_method": "as §1"}, "H3255": {"system": "H3255", "summary_of_the_method": "as §1"}, "A-427": {"system": "A-427", "summary_of_the_method": "as §1"}, "PC-3 [JPC-3]": {"system": "PC-3 [JPC-3]", "summary_of_the_method": "as §1"}, "NCI-H2347": {"system": "NCI-H2347", "summary_of_the_method": "as §1"}, "HCC-44": {"system": "HCC-44", "summary_of_the_method": "as §1"}, "NCI-H2405": {"system": "NCI-H2405", "summary_of_the_method": "as §1"}, "LCLC-103H": {"system": "LCLC-103H", "summary_of_the_method": "as §1"}, "LXF-289": {"system": "LXF-289", "summary_of_the_method": "as §1"}}, "data": [{"molecule": "COCC1(CO)C(=O)C2CCN1CC2", "note": "(centres undefined) [PRIMA-1MET] + NC(=O)Nc1cc(-c2cccc(F)c2)sc1C(=O)N[C@H]1CCCNC1 [AZD7762] (partner 0.2 µM)", "values": [{"measurement": "relative viability", "setting": "NCI-H441; first compound 0.2 µM", "value": 1.09}, {"measurement": "relative viability", "setting": "NCI-H441; first compound 0.6325 µM", "value": 1.06}, {"measurement": "relative viability", "setting": "NCI-H441; first compound 2 µM", "value": 0.833}, {"measurement": "relative viability", "setting": "NCI-H441; first compound 6.325 µM", "value": 1.1}, {"measurement": "relative viability", "setting": "NCI-H441; first compound 20 µM", "value": 0.731}, {"measurement": "relative viability", "setting": "NCI-H647; first compound 0.2 µM", "value": 0.578}, {"measurement": "relative viability", "setting": "NCI-H647; first compound 0.6325 µM", "value": 0.434}, {"measurement": "relative viability", "setting": "NCI-H647; first compound 2 µM", "value": 0.38}, {"measurement": "relative viability", "setting": "NCI-H647; first compound 6.325 µM", "value": 0.383}, {"measurement": "relative viability", "setting": "NCI-H647; first compound 20 µM", "value": 0.137}, {"measurement": "relative viability", "setting": "NCI-H460; first compound 0.2 µM", "value": 0.705}, {"measurement": "relative viability", "setting": "NCI-H460; first compound 0.6325 µM", "value": 0.382}, {"measurement": "relative viability", "setting": "NCI-H460; first compound 2 µM", "value": 0.659}, {"measurement": "relative viability", "setting": "NCI-H460; first compound 6.325 µM", "value": 0.703}, {"measurement": "relative viability", "setting": "NCI-H460; first compound 20 µM", "value": 0.251}, {"measurement": "relative viability", "setting": "NCI-H596; first compound 0.2 µM", "value": 1.24}, {"measurement": "relative viability", "setting": "NCI-H596; first compound 0.6325 µM", "value": 1}, {"measurement": "relative viability", "setting": "NCI-H596; first compound 2 µM", "value": 0.884}, {"measurement": "relative viability", "setting": "NCI-H596; first compound 6.325 µM", "value": 1.22}, {"measurement": "relative viability", "setting": "NCI-H596; first compound 20 µM", "value": 0.232}, {"measurement": "relative viability", "setting": "PC-14; first compound 0.2 µM", "value": 0.407}, {"measurement": "relative viability", "setting": "PC-14; first compound 0.6325 µM", "value": 0.386}, {"measurement": "relative viability", "setting": "PC-14; first compound 2 µM", "value": 0.319}, {"measurement": "relative viability", "setting": "PC-14; first compound 6.325 µM", "value": 0.387}, {"measurement": "relative viability", "setting": "PC-14; first compound 20 µM", "value": 0.178}, {"measurement": "relative viability", "setting": "NCI-H1437; first compound 0.2 µM", "value": 1.16}, {"measurement": "relative viability", "setting": "NCI-H1437; first compound 0.6325 µM", "value": 1.09}, {"measurement": "relative viability", "setting": "NCI-H1437; first compound 2 µM", "value": 1.03}, {"measurement": "relative viability", "setting": "NCI-H1437; first compound 6.325 µM", "value": 1.12}, {"measurement": "relative viability", "setting": "NCI-H1437; first compound 20 µM", "value": 1.05}, {"measurement": "relative viability", "setting": "ABC-1; first compound 0.2 µM", "value": 0.97}, {"measurement": "relative viability", "setting": "ABC-1; first compound 0.6325 µM", "value": 0.624}, {"measurement": "relative viability", "setting": "ABC-1; first compound 2 µM", "value": 0.952}, {"measurement": "relative viability", "setting": "ABC-1; first compound 6.325 µM", "value": 0.775}, {"measurement": "relative viability", "setting": "ABC-1; first compound 20 µM", "value": 0.376}, {"measurement": "relative viability", "setting": "NCI-H1755; first compound 0.2 µM", "value": 0.414}, {"measurement": "relative viability", "setting": "NCI-H1755; first compound 0.6325 µM", "value": 0.4}, {"measurement": "relative viability", "setting": "NCI-H1755; first compound 2 µM", "value": 0.392}, {"measurement": "relative viability", "setting": "NCI-H1755; first compound 6.325 µM", "value": 0.557}, {"measurement": "relative viability", "setting": "NCI-H1755; first compound 20 µM", "value": 0.446}, {"measurement": "relative viability", "setting": "NCI-H23; first compound 0.2 µM", "value": 0.212}, {"measurement": "relative viability", "setting": "NCI-H23; first compound 0.6325 µM", "value": 0.225}, {"measurement": "relative viability", "setting": "NCI-H23; first compound 2 µM", "value": 0.231}, {"measurement": "relative viability", "setting": "NCI-H23; first compound 6.325 µM", "value": 0.209}, {"measurement": "relative viability", "setting": "NCI-H23; first compound 20 µM", "value": 0.102}, {"measurement": "relative viability", "setting": "HCC-366; first compound 0.2 µM", "value": 0.3}, {"measurement": "relative viability", "setting": "HCC-366; first compound 0.6325 µM", "value": 0.186}, {"measurement": "relative viability", "setting": "HCC-366; first compound 2 µM", "value": 0.223}, {"measurement": "relative viability", "setting": "HCC-366; first compound 6.325 µM", "value": 0.281}, {"measurement": "relative viability", "setting": "HCC-366; first compound 20 µM", "value": 0.168}, {"measurement": "relative viability", "setting": "NCI-H3122; first compound 0.2 µM", "value": 0.854}, {"measurement": "relative viability", "setting": "NCI-H3122; first compound 0.6325 µM", "value": 0.911}, {"measurement": "relative viability", "setting": "NCI-H3122; first compound 2 µM", "value": 0.985}, {"measurement": "relative viability", "setting": "NCI-H3122; first compound 6.325 µM", "value": 0.95}, {"measurement": "relative viability", "setting": "NCI-H3122; first compound 20 µM", "value": 0.879}, {"measurement": "relative viability", "setting": "H3255; first compound 0.2 µM", "value": 0.945}, {"measurement": "relative viability", "setting": "H3255; first compound 0.6325 µM", "value": 0.873}, {"measurement": "relative viability", "setting": "H3255; first compound 2 µM", "value": 0.955}, {"measurement": "relative viability", "setting": "H3255; first compound 6.325 µM", "value": 1.06}, {"measurement": "relative viability", "setting": "H3255; first compound 20 µM", "value": 0.775}, {"measurement": "relative viability", "setting": "A-427; first compound 0.2 µM", "value": 0.741}, {"measurement": "relative viability", "setting": "A-427; first compound 0.6325 µM", "value": 0.795}, {"measurement": "relative viability", "setting": "A-427; first compound 2 µM", "value": 0.756}, {"measurement": "relative viability", "setting": "A-427; first compound 6.325 µM", "value": 0.711}, {"measurement": "relative viability", "setting": "A-427; first compound 20 µM", "value": 0.557}, {"measurement": "relative viability", "setting": "PC-3 [JPC-3]; first compound 0.2 µM", "value": 1}, {"measurement": "relative viability", "setting": "PC-3 [JPC-3]; first compound 0.6325 µM", "value": 0.797}, {"measurement": "relative viability", "setting": "PC-3 [JPC-3]; first compound 2 µM", "value": 0.811}, {"measurement": "relative viability", "setting": "PC-3 [JPC-3]; first compound 6.325 µM", "value": 0.904}, {"measurement": "relative viability", "setting": "PC-3 [JPC-3]; first compound 20 µM", "value": 0.672}, {"measurement": "relative viability", "setting": "NCI-H2347; first compound 0.2 µM", "value": 0.709}, {"measurement": "relative viability", "setting": "NCI-H2347; first compound 0.6325 µM", "value": 0.668}, {"measurement": "relative viability", "setting": "NCI-H2347; first compound 2 µM", "value": 0.569}, {"measurement": "relative viability", "setting": "NCI-H2347; first compound 6.325 µM", "value": 0.761}, {"measurement": "relative viability", "setting": "NCI-H2347; first compound 20 µM", "value": 0.525}, {"measurement": "relative viability", "setting": "HCC-44; first compound 0.2 µM", "value": 1.02}, {"measurement": "relative viability", "setting": "HCC-44; first compound 0.6325 µM", "value": 1.01}, {"measurement": "relative viability", "setting": "HCC-44; first compound 2 µM", "value": 1.18}, {"measurement": "relative viability", "setting": "HCC-44; first compound 6.325 µM", "value": 1.03}, {"measurement": "relative viability", "setting": "HCC-44; first compound 20 µM", "value": 1.01}, {"measurement": "relative viability", "setting": "NCI-H2405; first compound 0.2 µM", "value": 0.753}, {"measurement": "relative viability", "setting": "NCI-H2405; first compound 0.6325 µM", "value": 0.748}, {"measurement": "relative viability", "setting": "NCI-H2405; first compound 6.325 µM", "value": 0.676}, {"measurement": "relative viability", "setting": "NCI-H2405; first compound 20 µM", "value": 0.0739}, {"measurement": "relative viability", "setting": "LCLC-103H; first compound 0.2 µM", "value": 0.889}, {"measurement": "relative viability", "setting": "LCLC-103H; first compound 0.6325 µM", "value": 0.732}, {"measurement": "relative viability", "setting": "LCLC-103H; first compound 2 µM", "value": 0.673}, {"measurement": "relative viability", "setting": "LCLC-103H; first compound 6.325 µM", "value": 0.768}, {"measurement": "relative viability", "setting": "LCLC-103H; first compound 20 µM", "value": 0.756}, {"measurement": "relative viability", "setting": "LXF-289; first compound 0.2 µM", "value": 1.15}, {"measurement": "relative viability", "setting": "LXF-289; first compound 0.6325 µM", "value": 1.07}, {"measurement": "relative viability", "setting": "LXF-289; first compound 2 µM", "value": 1.13}, {"measurement": "relative viability", "setting": "LXF-289; first compound 6.325 µM", "value": 1.12}, {"measurement": "relative viability", "setting": "LXF-289; first compound 20 µM", "value": 1.01}]}]}
